Data reported in PubChem BioAssay AID1205 (EPA DSSTox, 2008).
The source made the active and inactive calls.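 The calls were made as follows: active = tumour findings in long-term animal cancer tests in more than one sex, species or organ; inactive = no tumour finding and more than one negative test.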

Test: DSSTox (CPDBAS) Carcinogenic Potency Database Summary MultiCellCall Results
Settings: animal carcinogenicity bioassays, multi-cell call summary
Procedure, shortened: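 Summary call drawn from chronic long-term cancer bioassays in rats, mice, hamsters, dogs and nonhuman primates, using the most positive result per sex-species. Score: multispecies=50, multisex=30, multisite=20, summed for combinations.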

Row | Compound | outcome
1 | OCC(CO)(CBr)CBr | active; multisite active; multisex active; multispecies active
2 | C=CCOC(=O)c1ccccc1C(=O)OCC=C | inactive; multisex inactive; multispecies inactive
3 | Oc1ccc(-c2ccccc2)cc1 | inactive; multisex inactive
4 | CN(C)C(=O)NC1CC2CC1C1CCCC21 (stereo not given) | inactive; multisex inactive
5 | O.O.O.O.O.O.O.O=S(=O)([O-])[O-].[Co+2] | active; multisite active; multisex active; multispecies active
6 | CCOC(=O)CC(SP(=O)(OC)OC)C(=O)OCC (stereo not given) | inactive; multisex inactive; multispecies inactive
7 | O=C1CCc2ccccc2O1 | active; multisite active; multisex active; multispecies active
8 | NC(=O)c1cnccn1 | inactive; multisex inactive; multispecies inactive
9 | CNC(=O)CSP(=S)(OC)OC | inactive; multisex inactive; multispecies inactive
10 | C[N+](C)(C)CCCl | inactive; multisex inactive; multispecies inactive
11 | O=C(O)COc1cc(Cl)c(Cl)cc1Cl | inactive; multisex inactive; multispecies inactive
12 | C=CCN(CC=C)N=O | active; multisex active; multispecies active
13 | COC(=O)C1=C(C)NC(C)=C(C(=O)OCCN2CCN(C(c3ccccc3)c3ccccc3)CC2)C1c1cccc([N+](=O)[O-])c1 (stereo not given) | inactive; multisex inactive; multispecies inactive
14 | C[C@H](CCc1ccccc1)NC[C@H](O)c1ccc(O)c(C(N)=O)c1 | inactive; multisex inactive
15 | Cc1ccccc1N=O | active; multisite active
16 | C#C[C@]1(O)CC[C@H]2[C@@H]3CCc4cc(OC)ccc4[C@H]3CC[C@@]21C | inactive; multisex inactive
17 | O=C1c2ccccc2C(=O)N1SC(Cl)(Cl)Cl | active; multisite active; multisex active
18 | CCN(CC)C(=S)SSC(=S)N(CC)CC | inactive; multisex inactive; multispecies inactive
19 | C=O | active; multisite active; multisex active; multispecies active
20 | Nc1ccc(N)c(Cl)c1 | inactive; multisex inactive; multispecies inactive
21 | Nc1ccc(-c2ccc(F)cc2)cc1 | active; multisex active
22 | Cc1ccc2c(c1[N+](=O)[O-])C(=O)c1ccccc1C2=O | active; multisite active; multisex active; multispecies active
23 | NC(=O)CCCCn1ccc(NC(N)=NCC(F)(F)F)n1 | active; multisex active; multispecies active
24 | CCCCCl | inactive; multisex inactive; multispecies inactive

Row | Compound | outcome
25 | CC[C@H](C)C(=O)O[C@H]1C[C@@H](C)C=C2C=C[C@H](C)[C@H](CC[C@@H]3C[C@@H](O)CC(=O)O3)[C@H]21 | active; multisite active; multisex active
26 | Cc1ccccc1OCC(O)CNCCn1cc(C)c(=O)[nH]c1=O (stereo not given) | inactive; multisex inactive
27 | CCCCN(CCCC)C(=S)[S-].CCCCN(CCCC)C(=S)[S-].[Zn+2] | inactive; multisex inactive
28 | C/C=C(/C)C(=O)O[C@H]1CCN2CC=C(COC(=O)[C@](O)([C@H](C)OC)C(C)(C)O)[C@H]12 | active; multisite active; multisex active
29 | CN=[N+](C)[O-] | active; multisite active
30 | COP(=O)(OC)OC=C(Cl)Cl | active; multisite active; multisex active; multispecies active
31 | O=C1CCC(=O)O1 | inactive; multisex inactive; multispecies inactive
32 | O=c1cc[nH]c(=O)[nH]1 | active; multisex active; multispecies active
33 | CCC1(c2ccccc2)C(=O)NC(=O)NC1=O | active; multisex active
34 | Cc1cc(=O)n(-c2ccccc2)n1C | active; multisite active
35 | CN(Cc1cnc2nc(N)nc(N)c2n1)c1ccc(C(=O)N[C@@H](CCC(=O)O)C(=O)O)cc1 | inactive; multisex inactive; multispecies inactive
36 | CC1CC(C)(C)CC(OOC(C)(C)C)(OOC(C)(C)C)C1 (stereo not given) | inactive; multisex inactive
37 | O.O.O.O.O.O.O=S(=O)([O-])[O-].[Ni+2] | inactive; multisex inactive; multispecies inactive
38 | C/[N+]([O-])=N/CO[C@@H]1O[C@H](CO)[C@@H](O)[C@H](O)[C@H]1O | active; multisite active; multispecies active
39 | O=Cc1ccccc1 | active; multisex active
40 | ClC(Cl)Br | active; multisite active; multisex active; multispecies active
41 | NC(=O)N(CCc1ccccc1)N=O | active; multisite active; multisex active
42 | CCN(CC)C(=O)c1cccc(C)c1 | inactive; multisex inactive; multispecies inactive
43 | CCCNN | active; multisex active
44 | O=NN1CCCC1c1ccc[n+]([O-])c1 (stereo not given) | active; multisite active; multisex active
45 | N | inactive; multisex inactive
46 | COc1ccc2c3c1O[C@H]1[C@@H](O)C=C[C@H]4[C@@H](C2)N(C)CC[C@@]341 | inactive; multisex inactive; multispecies inactive
47 | P | inactive; multisex inactive
48 | O=[N+]([O-])c1ccc2c3c(cccc13)CC2 | active; multisite active; multisex active; multispecies active

Row | Compound | outcome
49 | S=C([S-])NCCNC(=S)[S-].[Zn+2] | inactive; multisex inactive; multispecies inactive
50 | O=C1C(O)N=C(c2ccccc2F)c2cc(Cl)ccc2N1CCO (stereo not given) | inactive; multisex inactive
51 | c1ccc2cc(Nc3ccc(Nc4ccc5ccccc5c4)cc3)ccc2c1 | inactive; multisex inactive
52 | c1ccc2sc(SNC3CCCCC3)nc2c1 | inactive; multisex inactive
53 | Nc1cc(Cl)c(-c2cc(Cl)c(N)cc2Cl)cc1Cl | inactive; multisex inactive; multispecies inactive
54 | CCCN=[N+]([O-])CCC | active; multisite active
55 | ClC1=C(Cl)C(Cl)(Cl)C(Cl)=C1Cl | inactive; multisex inactive; multispecies inactive
56 | CCCN(N)C=O | active; multisite active; multisex active
57 | CN(C)C(=O)Nc1cccc(C(F)(F)F)c1 | inactive; multisex inactive; multispecies inactive
58 | CCC(C)c1cc([N+](=O)[O-])cc([N+](=O)[O-])c1O (stereo not given) | inactive; multisex inactive
59 | O.O.O.O.O=C([O-])CC(O)(CC(=O)[O-])C(=O)[O-].[Fe+3] | inactive; multisex inactive
60 | NC(=O)c1cccnc1 | inactive; multisex inactive
61 | Nc1ccc(NCCO)c([N+](=O)[O-])c1 | inactive; multisex inactive; multispecies inactive
62 | COc1ccc([C@@H]2CC(=O)c3c(O)cc(O[C@@H]4O[C@H](CO[C@@H]5O[C@@H](C)[C@H](O)[C@@H](O)[C@H]5O)[C@@H](O)[C@H](O)[C@H]4O)cc3O2)cc1OC | inactive; multisex inactive
63 | CCCc1cc(=O)[nH]c(=S)[nH]1 | active; multisite active; multisex active; multispecies active
64 | COC(C)(C)C | active; multisite active; multisex active; multispecies active
65 | Cc1ccc(C)c(N)c1 | active; multisite active; multisex active; multispecies active
66 | O=C(O)COc1ccc(Cl)cc1Cl | inactive; multisex inactive; multispecies inactive
67 | OC[C@@H](O)[C@H]1O[C@@H]2O[C@H](C(Cl)(Cl)Cl)O[C@@H]2[C@H]1O | inactive; multisex inactive
68 | COc1cc(/C=N/NC(=O)c2ccncc2)ccc1O | active; multisite active
69 | NNC(=O)c1ccccc1 | active; multisite active; multisex active
70 | O=C1C(c2[nH]c3ccc(S(=O)(=O)O)cc3c2O)=Nc2ccc(S(=O)(=O)O)cc21 | inactive; multisex inactive; multispecies inactive
71 | COc1ccc(N)c(OC)c1 | inactive; multisex inactive; multispecies inactive
72 | O=C1C2(Cl)C3(Cl)C4(Cl)C(Cl)(Cl)C5(Cl)C3(Cl)C1(Cl)C5(Cl)C24Cl (stereo not given) | active; multisex active; multispecies active

Row | Compound | outcome
73 | COc1cc2c(cc1N)oc1ccccc12 | active; multisite active; multisex active
74 | C=CCNNCC=C | active; multisex active
75 | O=C1CN=C(c2ccccc2)c2cc(Cl)ccc2N1CC1CC1 | inactive; multisex inactive; multispecies inactive
76 | O=[As](O)(O)O | inactive; multispecies inactive
77 | O=c1cc[nH]c(=S)[nH]1 | active; multisite active; multisex active; multispecies active
78 | O=S(=O)(c1ccc(Cl)cc1)c1ccc(Cl)cc1 | inactive; multisex inactive; multispecies inactive
79 | Cc1cccc2ccccc12 | inactive; multisex inactive
80 | CCOP(=S)(OCC)Oc1cc(C)nc(C(C)C)n1 | inactive; multisex inactive; multispecies inactive
81 | O=NN(c1ccccc1)c1ccccc1 | active; multisex active
82 | c1ccc(Nc2ccc(Nc3ccccc3)cc2)cc1 | inactive; multisex inactive; multispecies inactive
83 | O=C(O)Cc1c[nH]c2ccccc12 | inactive; multisex inactive
84 | CCN(CC)CCCNC(=O)Cn1ncc(-c2ccccc2)c1-c1ccccc1 | inactive; multisex inactive
85 | CC(=O)OC/C=C(C)/C=C/C=C(C)/C=C/C1=C(C)CCCC1(C)C | active; multisex active
86 | ClC(Cl)=C(Cl)c1c(Cl)c(Cl)c(Cl)c(Cl)c1Cl | inactive; multisex inactive; multispecies inactive
87 | O=c1[nH]cc(F)c(=O)[nH]1 | active; multisite active; multisex active
88 | CN(C)CNc1nnc(/C=C/c2ccc([N+](=O)[O-])o2)o1 | active; multisite active
89 | O=C1OC(c2ccc(O)cc2)(c2ccc(O)cc2)c2ccccc21 | active; multisite active; multisex active; multispecies active
90 | CCCC[C@H](C)[C@@H](OC(=O)C[C@H](CC(=O)O)C(=O)O)[C@@H](C[C@H](C)C[C@@H](O)CCCC[C@@H](O)C[C@H](O)[C@H](C)N)OC(=O)C[C@H](CC(=O)O)C(=O)O | active; multisite active; multisex active; multispecies active
91 | Nc1ccc2nc3ccccn3c2n1 | active; multisite active; multisex active; multispecies active
92 | CNC(=O)Oc1cc(C)c(N(C)C)c(C)c1 | inactive; multisex inactive; multispecies inactive
93 | C1CNCCN1 | inactive; multisex inactive
94 | Cc1cc2ncccc2c2nc(N)n(C)c12 | active; multisite active; multisex active
95 | CN(C)c1ccc(C(=O)c2ccc(N(C)C)cc2)cc1 | active; multisite active; multisex active; multispecies active
